Legend:
[1] = tested on: soybean; experiment: Test B pre/postemergence soybean; assay type: in vivo, Glycine max
In short: (§1)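 Herbicidal effect was estimated by eye on a ten-point control scale after plants spent twelve to sixteen days in a greenhouse following soil or foliar treatment. Foliar sprays targeted plants at one to four leaves; all doses were formulated in a non-phytotoxic solvent with surfactant.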

[2] = tested on: bamyardgrass; experiment: Test B flood test barnyardgrass; assay type: in vivo, Echinochloa crus-galli
In short: (§2)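 Plants were grown to the 2-leaf stage before treatment with test chemical, then held in a greenhouse for twelve to sixteen days. Injury was visually rated against untreated controls on a 0–10 scale, where 0 is no effect and 10 is complete control.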

[3] = tested on: sugar beet; experiment: Test B pre/postemergence sugar beet; assay type: in vivo, Beta vulgaris
In short: as §1

[4] = tested on: giant foxtail; experiment: Test B pre/postemergence giant foxtail; assay type: in vivo, Setaria faberii
In short: as §1

[5] = tested on: cocklebur; experiment: Test B pre/postemergence cocklebur; assay type: in vivo, Xanthium strumarium
In short: as §1

[6] = tested on: smallflower flatsedge; experiment: Test B flood test smallflower flatsedge; assay type: in vivo, Cyperus difformis
In short: as §2

[7] = tested on: duck salad; experiment: Test B flood test duck salad; assay type: in vivo, Heteranthera limosa
In short: as §2

[8] = tested on: corn; experiment: Test B pre/postemergence corn; assay type: in vivo, Zea mays
In short: as §1

[9] = tested on: pigweed; experiment: Test B pre/postemergence pigweed; assay type: in vivo, Amaranthus retroflexus
In short: as §1

[10] = tested on: rice; experiment: Test B flood test rice; assay type: in vivo, Oryza sativa
In short: as §2

[11] = tested on: crabgrass; experiment: Test B pre/postemergence crabgrass; assay type: in vivo, Digitaria sanguinalis
In short: as §1

[12] = tested on: purple nutsedge; experiment: Test B pre/postemergence purple nutsedge; assay type: in vivo, Cyperus rotundus
In short: as §1

[13] = tested on: wild oat; experiment: Test B pre/postemergence wild oat; assay type: in vivo, Avena fatua
In short: as §1

[14] = tested on: morningglory; experiment: Test B pre/postemergence morningglory; assay type: in vivo, Ipomoea hederacea
In short: as §1

[15] = tested on: surinam grass; experiment: Test B pre/postemergence surinam grass; assay type: in vivo, Brachiaria decumbens
In short: as §1

[16] = tested on: rape; experiment: Test B pre/postemergence rape; assay type: in vivo, Brassica napus
In short: as §1

[17] = Preemergence, Rate 62 g/ha, scale of 0 to 10 where 0 is no effect and 10 is complete control
[18] = Preemergence, Rate 250 g/ha, scale of 0 to 10 where 0 is no effect and 10 is complete control
[19] = Preemergence, Rate 500 g/ha, scale of 0 to 10 where 0 is no effect and 10 is complete control
[20] = Rate 125 g/ha, Postemergence, scale of 0 to 10 where 0 is no effect and 10 is complete control
[21] = Rate 125 g/ha, Preemergence, scale of 0 to 10 where 0 is no effect and 10 is complete control
[22] = Rate 250 g/ha, Postemergence, scale of 0 to 10 where 0 is no effect and 10 is complete control
[23] = Rate 500 g/ha, Postemergence, scale 0 to 10, 0 no effect, 10 complete control
[24] = Rate 62 g/ha, headed Pre-emergence (flood test species), scale 0 to 10 (0 no effect, 10 complete control)
[25] = Rate 125 g/ha, Pre-emergence, flood test species, scale 0 to 10 where 0 is no effect and 10 is complete control
[26] = Rate 250 g/ha, Pre-emergence, flood-test species, scale 0 to 10, 0 is no effect, 10 is complete control
[27] = Rate 500 g/ha, Pre-emergence, flood test species, scale 0 to 10 (0 no effect, 10 complete control)
[28] = Rate 62 g/ha, Postemergence, scale of 0 to 10 where 0 is no effect and 10 is complete control

## CC(C)N(C(=O)n1oc(=O)n(C2CCCC2)c1=O)c1ccc(F)cc1 [Compound 271]
[1]; [17]
  Soybean plant response rating: 0
[1]; [18]
  Soybean plant response rating: 0
[1]; [19]
  Plant response rating, Soybean: 1
[1]; [20]
  Soybean plant response rating: 5
[1]; [21]
  Soybean plant response rating: 0
[1]; [22]
  Plant response rating, Soybean: 5
[1]; [23]
  Soybean plant response rating: 6
[2]; [24]
  Barnyardgrass plant response rating: 4
[2]; [25]
  Barnyardgrass plant response rating: 3
[2]; [26]
  Barnyardgrass plant response rating: 9
[2]; [27]
  Barnyardgrass plant response rating: 9
[3]; [17]
  Sugarbeets plant response rating: 5
[3]; [18]
  Sugarbeets plant response rating: 8
[3]; [19]
  Plant response rating, Sugarbeets: 8
[3]; [20]
  Sugarbeets plant response rating: 2
[3]; [21]
  Sugarbeets plant response rating: 6
[3]; [22]
  Plant response rating, Sugarbeets: 4
[3]; [23]
  Sugarbeets plant response rating: 6
[4]; [17]
  Giant foxtail plant response rating: 8
[4]; [18]
  Giant foxtail plant response rating: 10
[4]; [19]
  Plant response rating, Giant foxtail: 10
[4]; [20]
  Giant foxtail plant response rating: 3
[4]; [21]
  Giant foxtail plant response rating: 10
[4]; [22]
  Plant response rating, Giant foxtail: 4
[4]; [23]
  Giant foxtail plant response rating: 7
[5]; [17]
  Cocklebur plant response rating: 0
[5]; [18]
  Cocklebur plant response rating: 0
[5]; [19]
  Plant response rating, Cocklebur: 4
[5]; [28]
  Cocklebur plant response rating: 0
[5]; [20]
  Cocklebur plant response rating: 0
[5]; [21]
  Cocklebur plant response rating: 0
[5]; [22]
  Plant response rating, Cocklebur: 1
[5]; [23]
  Cocklebur plant response rating: 4
[6]; [24]
  S. Flatsedge plant response rating: 0
[6]; [25]
  S. Flatsedge plant response rating: 0
[6]; [26]
  S. Flatsedge plant response rating: 0
[6]; [27]
  S. Flatsedge plant response rating: 0
[7]; [24]
  Ducksalad plant response rating: 0
[7]; [25]
  Ducksalad plant response rating: 0
[7]; [26]
  Ducksalad plant response rating: 0
[7]; [27]
  Ducksalad plant response rating: 0
[8]; [17]
  Corn plant response rating: 0
[8]; [18]
  Corn plant response rating: 0
[8]; [19]
  Plant response rating, Corn: 3
[8]; [28]
  Corn plant response rating: 0
[8]; [20]
  Corn plant response rating: 0
[8]; [21]
  Corn plant response rating: 0
[8]; [22]
  Plant response rating, Corn: 0
[8]; [23]
  Corn plant response rating: 0
[9]; [17]
  Redroot pigweed plant response rating: 3
[9]; [18]
  Redroot pigweed plant response rating: 10
[9]; [19]
  Plant response rating, Redroot pigweed: 10
[9]; [20]
  Redroot pigweed plant response rating: 5
[9]; [21]
  Redroot pigweed plant response rating: 8
[9]; [22]
  Plant response rating, Redroot pigweed: 7
[9]; [23]
  Redroot pigweed plant response rating: 8
[10]; [24]
  Rice plant response rating: 0
[10]; [25]
  Rice plant response rating: 0
[10]; [26]
  Rice plant response rating: 0
[10]; [27]
  Rice plant response rating: 0
[11]; [17]
  Crabgrass plant response rating: 3
[11]; [18]
  Crabgrass plant response rating: 7
[11]; [19]
  Plant response rating, Crabgrass: 8
[11]; [20]
  Crabgrass plant response rating: 1
[11]; [21]
  Crabgrass plant response rating: 5
[11]; [22]
  Plant response rating, Crabgrass: 1
[11]; [23]
  Crabgrass plant response rating: 5
[12]; [17]
  Nutsedge plant response rating: 0
[12]; [18]
  Nutsedge plant response rating: 0
[12]; [19]
  Plant response rating, Nutsedge: 0
[12]; [20]
  Nutsedge plant response rating: 0
[12]; [21]
  Nutsedge plant response rating: 0
[12]; [22]
  Plant response rating, Nutsedge: 0
[12]; [23]
  Nutsedge plant response rating: 0
[13]; [17]
  Wild oats plant response rating: 2
[13]; [18]
  Wild oats plant response rating: 6
[13]; [19]
  Plant response rating, Wild oats: 8
[13]; [20]
  Wild oats plant response rating: 0
[13]; [22]
  Plant response rating, Wild oats: 0
[13]; [23]
  Wild oats plant response rating: 3
[14]; [17]
  Morningglory plant response rating: 1
[14]; [18]
  Morningglory plant response rating: 2
[14]; [19]
  Plant response rating, Morningglory: 7
[14]; [20]
  Morningglory plant response rating: 2
[14]; [21]
  Morningglory plant response rating: 1
[14]; [22]
  Plant response rating, Morningglory: 8
[14]; [23]
  Morningglory plant response rating: 8
[15]; [17]
  B. signalgrass plant response rating: 8
[15]; [18]
  B. signalgrass plant response rating: 8
[15]; [19]
  Plant response rating, B. signalgrass: 10
[15]; [28]
  B. signalgrass plant response rating: 0
[15]; [20]
  B. signalgrass plant response rating: 0
[15]; [21]
  B. signalgrass plant response rating: 8
[15]; [22]
  Plant response rating, B. signalgrass: 2
[15]; [23]
  B. signalgrass plant response rating: 5
[16]; [17]
  Rape plant response rating: 2
[16]; [18]
  Rape plant response rating: 10
[16]; [19]
  Plant response rating, Rape: 10
[16]; [20]
  Rape plant response rating: 3
[16]; [21]
  Rape plant response rating: 4
[16]; [22]
  Plant response rating, Rape: 4
[16]; [23]
  Rape plant response rating: 6

From patent US6737383B1, “Herbicidal oxadiazolidines” (priority 1999, dated 2004)
